Results: publication PMC12081684, “A three-dimensional high throughput assay identifies novel antibacterial molecules with activity against intracellular Shigella” (npj Antimicrobials and Resistance, 2025)
Values joined by “and” are separate entries in the source; they are usually repeats but may differ in a detail not shown here. Equal entries are not always repeated. Where two headings read alike, the source gives them in different places.

Assays:
[1] = tested on: intracellular S. flexneri SF_nanoluc in Caco-2 cells on Cytodex 3 beads; test: microbe, parasite or virus in culture
Experimental: S. flexneri SF_nanoluc was grown overnight on a 50mgL^-1 kanamycin LB plate at 37 °C. Bacteria were scraped from the plate surface and sub-cultured in warm supplemented EMEM medium for 2 h (at 37 °C and 200 rpm) and diluted to get OD around 0.3 at 625 nm. Induction was performed in 500 ml or 1000 ml siliconized spinner flasks under closed culture conditions. 200 mg autoclaved Cytodex 3 beads (GE Healthcare), rehydrated with cation-free PBS (Sigma), were washed with supplemented EMEM medium and inoculated with 1.7 million Caco-2 cells/ml in half of the desired culture volume of the medium. The spinner vessel was kept static for 4 h in a humidified atmosphere of 5% CO2 at 37 °C, allowing Caco-2 cells to bind to beads. The remaining medium was added into the vessel and stirred at 32.5 rpm. The medium was changed every 72 h, and the induction was used on day 17 to ensure Caco-2 cells were fully differentiated.
Cell concentration induction was measured by NucleoCounter® NC-100™ (ChemoMetec Version 2.4). Cellular invasion was initiated by adding the bacterial stock into cell induction with optimal MOI, and the vessel was stationary for an hour before stirring at 22.5 rpm for 5 h in a humid atmosphere of 5% CO2 at 37 °C. After incubation, culture media was discarded by centrifugation; and a gentamicin protection assay was performed, in which cell beads were washed twice with a warm medium and EMEM containing gentamicin (100ug ml^-1) was added to the chamber of the system. The cell culture was incubated for 1 h with stirring and then washed three times with a warm medium before 25 μl of the invasive mixture was dispensed into each well. Plates were incubated for two days in a humid atmosphere of 5% CO2 at 37 °C before proceeding to develop the luminescent signal by adding 10 μl mixture of nanoluciferase substrate (Nano-Glo® Luciferase Assay System, N1130, Promega) into each well. After standing at room temperature for 30 min, luminescent signals were quantified by the Envision Reader (PerkinElmer) in focus luminescent mode. For the bacterial tracking, we used the green fluorescent protein in S. flexneri ATCC 12022GFP to monitor the invasion.
The HTS assay was performed in 384-well black clear-bottom plates (Greiner). Screening compounds were prepared with an appropriate DMSO concentration (0.5% in cell-based assay). Every assay plate contained 16 wells of DMSO as negative controls and 16 wells of moxifloxacin at a final concentration of 20 μM as positive controls. These controls were used to monitor assay quality through determination of Z’ factor as well as normalizing the data on a per-plate basis.
To assess the quality of the dose-response assay, 11 commercially available antimicrobials were used to evaluate the reliability of the HTS assay. The percentage of coefficient of variation (CV%) was calculated by accessing the IC50 (μM) deviation of selected positive controls. Intra-assay reproducibility was determined by comparing the IC50 that were generated in the same run of the two replicates. Inter-assay reproducibility was assessed by comparing the IC50 generated by two replicates of each day over two days. Intra-assay %CV should be <10%, while inter-assay %CV should be <15%. To validate the HTS assay configuration, a set of 10 thousand compounds was assayed in 384-well plates at a final concentration of 10 μM. Assay were run in duplicate and confirmed if needed, a validation data was assessed to analyse the pros and cons of the whole procedure.
Following screening, all non-novel structures were removed, and the remaining compounds were subjected to a dose response (DR) assay, which was set as 3-fold serial dilution started at 100uM each compound.
The raw data of the plate reader was imported and analysed in ActivityBase and Spotfire version 10.3.1.18 (TIBCO).

HepG2 cells = test: In vitro cytotoxicity on HepG2 cells; type: cell-based; conditions: for IC50: Homo sapiens
From the text: Upon chemical review, the 15 hit compounds were reorganized based on structure similarity into 13 clusters. Two chemicals were considered as a series, and the remaining 11 clusters were singletons (Fig. 3). […] Four of the 15 structures carried an NO2 moiety, including two hits of Series 1, one hit of Series 2, and Singleton 7. Although the antibacterial activity of nitro-containing molecules is known to be broad, nitro groups have been extensively associated with mutagenicity and genotoxicity.

[2] = Experimental Chromlog / ChromLogD pH7.4 and PFI; type: physicochemical; conditions: for Chromlog pH7.4 (Expt): pH7.4, experimental
CAD solubility = type: physicochemical; conditions: Table 1
[3] = tested on: intracellular S. flexneri in Caco-2 cell monolayers; test: Monolayer (plate-based) Caco-2 intracellular Shigella assay; type: cell-based, Shigella flexneri
From the text: The IC50 comparison between plate-based (monolayers) and bead-based assay was applied for control (Moxifloxacin) to validate and compare between two methods. The average IC50s from monolayer assays were lower than bead-based assays, but there was no significant difference (p value > 0.05, using Mann-Whitney test) between two methods (Supplementary Table 6).

[4] = Shigella flexneri, Caco-2, read-out: Caco2 IC50 (μM), Table 1, 3-D Caco-2 beads, intracellular S. flexneri
[5] = Shigella flexneri, Caco-2, read-out: Caco2 pIC50, Table 1 (converted), 3-D Caco-2 beads, intracellular S. flexneri
[6] = HepG2, Supplementary table 8, read-out: HepG2 pIC50 (converted)
[7] = HepG2, read-out: HepG2 pIC50, Table 1 (converted)
[8] = HepG2, Table 1, read-out: HepG2 pIC50 (converted)
[9] = Shigella flexneri, Caco-2, read-out: IC50 T1, 1st Batch, replicate T1
[10] = Shigella flexneri, Caco-2, read-out: IC50 T2, 1st Batch, replicate T2
[11] = Shigella flexneri, Caco-2, read-out: IC50 T3, 2nd Batch, replicate T3
[12] = Shigella flexneri, Caco-2, read-out: IC50 T4, 2nd Batch, replicate T4

SMILES	Selectivity (log) Caco pIC50 vs Cytotox ([1]; Caco-2)	Selectivity (log) Caco pIC50 vs cytox ([1]; Caco-2)	IC50 [1, 4]	IC50 [1, 5]	Chromlog pH7.4 (Expt) [2]	CAD sol (CAD solubility)	IC50 [1, 9]	IC50 [1, 10]	IC50 [1, 11]	IC50 [1, 12]	further results
CC(C)c1noc2ncc(C(=O)c3ccccc3O)cc12 [Compound 12]	1.80 log	1.80 log	1.59 µM	1.58 µM	6.05	44 µg/mL					IC50 (HepG2 cells; [6]): > 100000 nM; IC50 (HepG2 cells; [7]): > 10000 nM; PFI (Expt) ([2]; experimental): 9.05
COc1ccc(C2Nc3nc4ccccc4n3C(C)=C2C(=O)Nc2ccccc2)cc1 (stereo not drawn) [Compound 8]	0.38 log	0.38 log	22.9 µM	22.9 µM	4.77	10 µg/mL					HepG2 cytotoxicity (in words) (HepG2 cells): exhibit HepG2 cytotoxicity; IC50 (HepG2 cells; [8]): 55000 nM
CN(C)[C@@H]1C(O)=C(C(N)=O)C(=O)[C@@]2(O)C(O)=C3C(=O)c4c(O)cccc4[C@@](C)(O)[C@H]3C[C@@H]12 [Tetracycline, reference compound]							1.61 µM	1.56 µM	1.19 µM	1.18 µM	
COc1ccc(-c2ccn(CC[C@](C)(C(=O)NO)S(C)(=O)=O)c(=O)c2)c(F)c1 [PF5081090, reference compound]											IC50 ([1]; read-out: IC50 T1, 1st Batch, replicate T1): 0.0957 µM; IC50 ([1]; read-out: IC50 T2, 1st Batch, replicate T2): 0.0919 µM; IC50 ([1]; read-out: IC50 T3, 2nd Batch, replicate T3): 0.0937 µM; IC50 ([1]; read-out: IC50 T4, 2nd Batch, replicate T4): 0.0938 µM
NC(=O)c1ccccc1Oc1ccc(Cl)cc1[N+](=O)[O-] [Compound 11]	0.61 log										IC50 ([1]; Shigella flexneri, Caco-2, read-out: Caco2 pIC50, Supplementary table 8 (converted)): 5.75 µM; HepG2 cytotoxicity (in words) (HepG2 cells): exhibit HepG2 cytotoxicity; IC50 (HepG2 cells; [6]): 23400 nM
C[C@@H](O)[C@H]1C(=O)N2C(C(=O)O)=C(S[C@@H]3CN[C@H](C(=O)N(C)C)C3)[C@H](C)[C@H]12 [Meropenem, reference compound]							0.349 µM	0.365 µM	0.404 µM	0.399 µM	
COc1c(N2C[C@@H]3CCCN[C@@H]3C2)c(F)cc2c(=O)c(C(=O)O)cn(C3CC3)c12 [Moxifloxacin, reference compound]							0.0252 µM	0.0221 µM	0.0235 µM	0.0235 µM	IC50 ([1]; Shigella flexneri, Caco-2, read-out: IC50 (µM) Beads, Average, Average of three, Supplementary table 6): 0.0305 µM; IC50 ([1]; Shigella flexneri, Caco-2, read-out: IC50 (µM) Beads, single runs, Supplementary table 6): 0.0361 µM; IC50 ([1]; read-out: IC50 (µM) Beads, single runs, Supplementary table 6): 0.0327 µM and 0.0226 µM; IC50 ([3]; Shigella flexneri, Caco-2, Average of three, read-out: IC50 (µM) Monolayers, Average): 0.0232 µM; IC50 ([3]; Shigella flexneri, Caco-2, single runs, read-out: IC50 (µM) Monolayers): 0.0236 µM; IC50 ([3]; single runs, read-out: IC50 (µM) Monolayers): 0.0234 µM and 0.0228 µM
N#Cc1cnn2c1[nH]c(=O)c1sc(-c3ccccc3)cc12 [Compound 9]	0.58 log	0.58 log	19.9 µM	20 µM	2.5	17 µg/mL					IC50 ([1]; Shigella flexneri, Caco-2, read-out: Caco2 pIC50, printed in Fig. 3 (converted)): 2 µM; IC50 (HepG2 cells; [8]): 75900 nM
CN1C(=O)[C@H](NC(=O)NCc2ccccc2)N=C(c2ccccc2)c2ccccc21 [Compound 5]			19.1 µM	19.1 µM							Selectivity (log) Caco pIC50 vs Cytotox ([1]; Supplementary table 8, vs HepG2): > 0.72 log; Selectivity (log) Caco pIC50 vs cytox ([1]; Table 1, Caco2 pIC50 vs HepG2 pIC50): >0.72 log; IC50 (HepG2 cells; [8]): > 100000 nM
CCn1c(-c2nonc2N)nc2c(-c3cccc(Cl)c3)ncc(C(O)c3ccn(C)n3)c21 (stereo not drawn) [Compound 7]	> 1.49 log	>1.49 log	3.24 µM	3.24 µM	4.75	10 µg/mL					IC50 (HepG2 cells; [8]): > 100000 nM
Cc1nn(-c2ccccc2)c(C)c1NC(=O)CN1C(=O)NC(C)(c2ccco2)C1=O (stereo not drawn) [Compound 14]	> 0.61 log	>0.61 log	24.6 µM	24.5 µM	2.93	>106 µg/mL					IC50 (HepG2 cells; [6]): > 100000 nM; IC50 (HepG2 cells; [7]): > 100 nM
CNC(C)C1CCC(N)C(OC2C(N)CC(N)C(OC3OCC(C)(O)C(NC)C3O)C2O)O1 (stereo not drawn) [Gentamicin, reference compound]							1.52 µM	1.27 µM	1.17 µM	1.24 µM	
CO/N=C(\C(=O)N[C@@H]1C(=O)N2C(C(=O)O)=C(CSc3nc(=O)c(=O)[nH]n3C)CS[C@H]12)c1csc(N)n1 [Ceftriaxone, reference compound]							0.0151 µM	0.0151 µM	0.0196 µM	0.0196 µM	
C[C@@H](O)[C@H]1C(=O)N2C(C(=O)O)=C([C@H]3CCCO3)S[C@H]12 [Faropenem, reference compound]							1.3 µM	1.23 µM	1.43 µM	1.44 µM	
CC(=O)c1cccc(NC(=O)Nc2ccc(S(=O)(=O)Nc3cc(C)on3)cc2)c1 [Compound 15]	> 0.76 log	>0.61 log	17.4 µM	17.4 µM	2.04	>149 µg/mL					IC50 (HepG2 cells; [6]): > 100000 nM; IC50 (HepG2 cells; [7]): > 10 nM
CC(=O)c1csc(-c2csc(C)n2)n1 [Compound 10]	1.07 log	1.07 log	8.51 µM	8.51 µM							IC50 (HepG2 cells; [7]): > 100000 nM
COc1ccc2c(CC(=O)NC(c3ccc(Cl)cc3)C3CC3)coc2c1 (stereo not drawn) [Compound 13]	> 0.61 log	>0.61 log	24.6 µM	24.5 µM	6.43	53 µg/mL					IC50 (HepG2 cells; [6]): > 100000 nM; IC50 (HepG2 cells; [7]): > 1000 nM
CC[C@H]1OC(=O)[C@H](C)[C@@H](O[C@H]2C[C@@](C)(OC)[C@@H](O)[C@H](C)O2)[C@H](C)[C@@H](O[C@@H]2O[C@H](C)C[C@H](N(C)C)[C@H]2O)[C@](C)(O)C[C@@H](C)CN(C)[C@H](C)[C@@H](O)[C@]1(C)O [Azithromycin, reference compound]							0.569 µM	0.51 µM	0.624 µM	0.624 µM	
